Measured values as given in patent publication US5814630A, “Quinazoline compounds” (Zeneca Limited, priority 1996, dated 1998).

Experiments:
[1] = biological target: T1, EGF receptor tyrosine kinase (Homo sapiens, UniProt P00533); test: in vitro inhibition of the enzyme EGF receptor tyrosine kinase (Test (a)); assay type: biochemical; conditions: receptor tyrosine kinase from A-431 cells
T1 construct: Receptor tyrosine kinase was obtained in partially purified form from A-431 cells; endogenous in cells; host or cells: A-431 cells (human vulval carcinoma), Triton X-100 solubilised membrane fraction
T1 sequence (P00533 25-1210): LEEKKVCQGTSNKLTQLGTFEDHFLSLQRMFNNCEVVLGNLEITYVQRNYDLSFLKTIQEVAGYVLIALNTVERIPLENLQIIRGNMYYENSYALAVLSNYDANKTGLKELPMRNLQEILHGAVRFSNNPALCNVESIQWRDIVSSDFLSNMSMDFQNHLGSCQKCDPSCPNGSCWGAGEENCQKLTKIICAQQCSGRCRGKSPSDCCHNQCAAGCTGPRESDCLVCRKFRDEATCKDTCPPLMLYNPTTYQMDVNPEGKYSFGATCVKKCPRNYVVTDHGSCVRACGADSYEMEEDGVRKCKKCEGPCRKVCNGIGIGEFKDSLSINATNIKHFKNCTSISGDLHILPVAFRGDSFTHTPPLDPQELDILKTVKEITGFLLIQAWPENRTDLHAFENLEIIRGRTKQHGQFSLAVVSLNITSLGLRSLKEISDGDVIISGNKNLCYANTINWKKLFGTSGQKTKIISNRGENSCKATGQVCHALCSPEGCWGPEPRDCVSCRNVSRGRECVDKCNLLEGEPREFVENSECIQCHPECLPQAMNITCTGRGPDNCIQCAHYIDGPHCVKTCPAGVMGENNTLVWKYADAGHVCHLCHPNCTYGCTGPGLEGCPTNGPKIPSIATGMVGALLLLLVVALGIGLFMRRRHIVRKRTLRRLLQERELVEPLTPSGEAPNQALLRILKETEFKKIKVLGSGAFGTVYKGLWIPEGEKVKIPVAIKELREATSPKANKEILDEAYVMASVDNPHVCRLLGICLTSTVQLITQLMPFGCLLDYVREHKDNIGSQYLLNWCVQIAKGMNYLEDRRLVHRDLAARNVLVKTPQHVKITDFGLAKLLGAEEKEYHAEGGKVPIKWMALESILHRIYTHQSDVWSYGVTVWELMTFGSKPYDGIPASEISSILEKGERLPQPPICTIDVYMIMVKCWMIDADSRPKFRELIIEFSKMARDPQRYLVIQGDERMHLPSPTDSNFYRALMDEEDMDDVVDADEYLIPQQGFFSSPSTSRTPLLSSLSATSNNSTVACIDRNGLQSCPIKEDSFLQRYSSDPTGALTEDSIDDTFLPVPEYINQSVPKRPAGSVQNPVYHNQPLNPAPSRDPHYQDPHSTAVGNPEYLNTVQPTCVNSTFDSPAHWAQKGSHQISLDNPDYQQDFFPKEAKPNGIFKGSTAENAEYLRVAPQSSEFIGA
T1 sequence (P01133 971-1023 partner limits assumed): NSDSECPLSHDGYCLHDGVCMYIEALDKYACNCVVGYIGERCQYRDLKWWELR
Experimental: (a) An in vitro assay which determines the ability of a test compound to inhibit the enzyme EGF receptor tyrosine kinase. Receptor tyrosine kinase was obtained in partially purified form from A-431 cells (derived from human vulval carcinoma) by the procedures described below which are related to those described by Carpenter et al., J. Biol. Chem., 1979, 254, 4884, Cohen et al., J. Biol. Chem., 1982, 257, 1523 and by Braun et al., J. Biol. Chem., 1984, 259, 2051.
A-431 cells were grown to confluence using Dulbecco's modified Eagle's medium DMEM) containing 5% fetal calf serum (FCS). The obtained cells were homogenised in a hypotonic borate/EDTA buffer at pH 10.1. The homogenate was centrifuged at 400 g for 10 minutes at 0°-4° C. The supernatant was centrifuged at 25,000 g for 30 minutes at 0°-4° C. […]
The test compound/EGF mixture solution (5 μl) was added to the test enzyme solution (10 μl) and the mixture was incubated at 0°-4° C. for 30 minutes. […] Radioactivity present in the filter paper was measured using a liquid scintillation counter (Sequence A). […]
Receptor tyrosine kinase inhibition was calculated as follows: [formula]
The extent of inhibition was then determined at a range of concentrations of test compound to give an IC50 value.

[2] = test system: human naso-pharyngeal cancer cell line KB; test: in vitro inhibition of EGF-stimulated growth of human naso-pharyngeal cancer cell line KB (Test (b)); assay type: cell-based; conditions: 72 h, EGF 10 ng/ml, 3 days, MTT, read-out: IC50 in Test (b), inhibition of EGF-stimulated growth of KB cells
Experimental: (b) An in vitro assay which determines the ability of a test compound to inhibit the EGF-stimulated growth of the human naso-pharyngeal cancer cell line KB.
KB cells were seeded into wells at a density of 1×10^4 -1.5×10^4 cells per well and grown for 24 hours in DMEM supplemented with 5% FCS (charcoal-stripped). Cell growth was determined after incubation for 3 days by the extent of metabolism of MTT tetrazolium dye to furnish a bluish colour. Cell growth was then determined in the presence of EGF (10 ng/ml) or in the presence of EGF (10 ng/ml) and a test compound at a range of concentrations. An IC50 value could then be calculated.

[3] = test system: human mammary carcinoma which expresses EGF receptor tyrosine kinase; conditions: athymic nude mice; cited from earlier work
[4] = test system: another carcinoma which does not express EGF receptor tyrosine kinase; conditions: cited from earlier work
[5] = test system: EGF receptor tyrosine kinase; conditions: Fry et al., Science, 1994, 265, 1093; cited from earlier work

## Fc1ccc(Nc2ncnc3cc(-c4csc(CN5CCOCC5)c4)ccc23)cc1Cl [Example 5, 4-(3-chloro-4-fluoroanilino)-7-(5-morpholinomethylthien-3-yl)quinazoline]
[1]
  IC50: 42 nM
[2]
  IC50: 120 nM

## O=CN/C=C/c1cc(O)ccc1O [erbstatin]
[3]
  attenuation of growth of a transplanted human mammary carcinoma: specifically attenuates the growth
[4]
  effect on the growth of another carcinoma: without effect

## COc1cc2ncnc(Nc3cccc(Br)c3)c2cc1OC [4-(3-bromoanilino)-6,7-dimethoxyquinazoline]
[5]
  inhibition of EGF receptor tyrosine kinase (in words): highly potent inhibitor
